Experimental data published in article PMC7904550, “Application of grouping and read-across for the evaluation of parabens of different chain lengths with a particular focus on endocrine properties” (Archives of Toxicology, 2021).

Legend:
[1] = Octanol–water partition coefficient (Log Kow); format: physicochemical; conditions: mean; OECD TG 107 and OECD TG 117
From the text: Generally, these parabens have very similar physico-chemical properties.

in vivo = conditions: for concentration at 1 h / Tmax / AUC(0-t) / Cmax: Wistar, rat, serum; for concentration at 1 h: oral; for Tmax / AUC(0-t) / Cmax: po; for AUC(0-t) / Cmax / AUC0-1 h/AUC0–t / C1h/Cmax / Clast / tlast: parent compound
Procedure: These studies were conducted similarly to OECD TG 417 applying 500 and 1000 mg/kg body weight (bw) test item via oral gavage to 10 males and 10 females per dose group. Focus of the toxicokinetic evaluation was on the measurement of the serum concentrations of the parent compounds and their (common) major metabolite p-hydroxybenzoic acid by […] in order to assess the systemic uptake and elimination of the parent compounds and this major metabolite [see also ECHA ([2017a])]. The limit of quantification was determined as 10 ng/mL for all parabens, and as 130 ng/mL for p-hydroxybenzoic acid. […] On account of these major aims, investigations of the faeces and urine were not included in the toxicokinetics screening studies.

[2] = Grouping and read-across of NOAEL (ECHA RAAF Scenario 5; analogue approach)
From the text: The strength of evidence for the respective AEs was scored by the assessment options indicated in the RAAF ranging from Score 5 (acceptable with high confidence) to Score 1 (not acceptable) (ECHA [2017b]).

rats [3] = conditions: acute oral, rats, OECD 401; ref ECHA dissemination portal; cited from earlier work
rats [4] = conditions: rat, in vivo; cited from earlier work
rats [5] = conditions: rat, in vivo; cited from earlier work; remark: listed apart in the source
rats [6] = conditions: rat, in vivo; cited from earlier work; remark: listed apart in the source
bacteria = conditions: OECD 471; ref ECHA dissemination portal; cited from earlier work
rats [7] = conditions: read-across from MP; ref ECHA dissemination portal; cited from earlier work
SD-JCL rats = conditions: feeding study, ref Sado 1973, Liebert 1984; cited from earlier work
rats [8] = conditions: ref EFSA 2004; cited from earlier work
[9] = read-across by interpolation from methyl paraben and propyl paraben

SMILES: CCOC(=O)c1ccc(O)cc1 [Ethyl paraben, Ethyl 4-hydroxybenzoate]
- Log Kow [1]: 2.3 (mean; OECD TG 107 and OECD TG 117)
- concentration at 1 h (in vivo; female, 500 mg/kg): 116 ng/mL
- concentration at 1 h (in vivo; female, 1000 mg/kg): 305 ng/mL
- Tmax (in vivo; female, 500 mg/kg): 4.8 min
- AUC(0-t) (in vivo; female, 500 mg/kg, AUC0-1 h): 1080 ng·h/mL
- AUC(0-t) (in vivo; female, 500 mg/kg, AUC0–t): 1540 ng·h/mL
- Cmax (in vivo; female, 500 mg/kg): 5930 ng/mL
- Tmax (in vivo; female, 1000 mg/kg): 10.2 min
- AUC(0-t) (in vivo; female, 1000 mg/kg, AUC0-1 h): 1660 ng·h/mL
- AUC(0-t) (in vivo; female, 1000 mg/kg, AUC0–t): 3320 ng·h/mL
- Cmax (in vivo; female, 1000 mg/kg): 5150 ng/mL
- Cmax (in vivo; female, 1000 mg/kg, females): 5000 ng/mL
- concentration at 1 h (in vivo; male, 500 mg/kg): 71.6 ng/mL
- concentration at 1 h (in vivo; male, 1000 mg/kg): 96.6 ng/mL
- Tmax (in vivo; male, 500 mg/kg): 4.8 min
- AUC(0-t) (in vivo; male, 500 mg/kg, AUC0-1 h): 320 ng·h/mL
- AUC(0-t) (in vivo; male, 500 mg/kg, AUC0–t): 632 ng·h/mL
- Cmax (in vivo; male, 500 mg/kg): 1540 ng/mL
- Tmax (in vivo; male, 1000 mg/kg): 4.8 min
- AUC(0-t) (in vivo; male, 1000 mg/kg, AUC0-1 h): 490 ng·h/mL
- AUC(0-t) (in vivo; male, 1000 mg/kg, AUC0–t): 789 ng·h/mL
- Cmax (in vivo; male, 1000 mg/kg): 2390 ng/mL
- Cmax (in vivo; male, 1000 mg/kg, males): 2000 ng/mL
- AUC0-1 h/AUC0–t (in vivo; 500 mg/kg, female): 70%
- C1h/Cmax (in vivo; 500 mg/kg, female): 2.0%
- Clast (in vivo; 500 mg/kg, female): 23.9 ng/mL
- tlast (in vivo; 500 mg/kg, female): 8.0 h
- AUC0-1 h/AUC0–t (in vivo; 500 mg/kg, male): 51%
- C1h/Cmax (in vivo; 500 mg/kg, male): 4.7%
- Clast (in vivo; 500 mg/kg, male): 70.6 ng/mL
- tlast (in vivo; 500 mg/kg, male): 8.0 h
- AUC0-1 h/AUC0–t (in vivo; 1000 mg/kg, female): 50%
- C1h/Cmax (in vivo; 1000 mg/kg, female): 5.9%
- Clast (in vivo; 1000 mg/kg, female): 168 ng/mL
- tlast (in vivo; 1000 mg/kg, female): 8.0 h
- AUC0-1 h/AUC0–t (in vivo; 1000 mg/kg, male): 62%
- C1h/Cmax (in vivo; 1000 mg/kg, male): 4.0%
- Clast (in vivo; 1000 mg/kg, male): 33.3 ng/mL
- tlast (in vivo; 1000 mg/kg, male): 8.0 h
- NOAEL for repeated-dose toxicity and DART ([2]; interpolated from methyl paraben and propyl paraben): 1000 mg/kg bw/day
- NOAEL, EOGRTS: developmental and reproductive toxicity [2, 9]: NOAEL: 1000 (Read-across by interpolation) mg/kg body weight/day
- NOAEL, developmental toxicity (OECD TG 414) [2, 9]: NOAEL: 1000 (Read-across by interpolation) mg/kg body weight/day
- NOAEL, reproductive toxicity (OECD TG 421/422) [2, 9]: NOAEL: 1000 (Read-across by interpolation) mg/kg body weight/day
- LD50 (rats [3]): > 3100 (OECD 401; 1982) mg/kg bw
- Skin irritation/skin corrosion classification (rats [4]): Not irritating (OECD 404; 1983)
- Eye irritation/eye corrosion classification (rats [5]): Not irritating (OECD 405; 1983)
- Skin sensitisation classification (rats [6]): Not sensitising (equiv. OECD 406; 1981)
- Mutagenicity in bacteria classification (bacteria): Not mutagenic [c] (OECD 471; 2012)
- Genetic toxicity in vivo (rats) classification (rats [7]): Not clastogenic (read-across from MP)
- NOAEL, 25-week repeated dose toxicity (SD-JCL rats): NOAEL: 1200 (25-week repeated dose toxicity [a]) mg/kg body weight/day
- NOAEL (rats [8]): 1000 mg/kg bw/day
